We go through nine molecules from ChEMBL document CHEMBL1158878, “New phomopsolides from a Penicillium sp” (1997).

Each structure is given as a SMILES string.

Common to all, as to assay type: functional
Experiment [1] deals with Staphylococcus aureus. Nature of the experiment: Antimicrobial activity against Staphylococcus aureus at 100 ug by antimicrobial disk assay. The conditions noted are these: read-out: IZ.
The test system of experiment [2] is Staphylococcus aureus. The experiment is described as follows: Antimicrobial activity against Staphylococcus aureus at 25 ug by antimicrobial disk assay. The following applies: read-out: IZ.
Experiment [3] relates to Staphylococcus aureus. Nature of the experiment: Antimicrobial activity against Staphylococcus aureus at 50 ug by antimicrobial disk assay. The following applies: read-out: IZ.
Experiment [4] concerns Staphylococcus aureus. Nature of the experiment: Antimicrobial activity against Staphylococcus aureus at 10 units by antimicrobial disk assay.
Experiment [5] deals with Staphylococcus aureus. The experiment is described as follows: Antimicrobial activity against Staphylococcus aureus at 10 ug by antimicrobial disk assay. The conditions noted are these: read-out: IZ.
Experiment [6] has as its system Staphylococcus aureus. The experiment is described as follows: Antimicrobial activity against Staphylococcus aureus at 30 ug by antimicrobial disk assay. The conditions noted are these: read-out: IZ.

Regarding `C/C=C/C1=C(C)C(=O)C(C)(O)O1` (centres undefined), in experiment [1], the zone of inhibition at 100 µg/disc turned out to be 9 mm.
As for `C/C=C(\C)C(=O)O[C@H]1C=CC(=O)O[C@H]1/C=C/C(=O)C(C)O` (some centres undefined), the zone of inhibition at 25 µg/disc in experiment [2] amounted to 22 mm.
With `C/C=C(\C)C(=O)O[C@H]1C=CC(=O)O[C@H]1CCC(=O)C(C)O` (some centres undefined) [6,7-DIHYDROPHOMOPSOLIDE A], the zone of inhibition at 50 µg/disc in experiment [3] was determined as 9 mm.
For `C/C=C(\C)C(=O)O[C@H]1C=CC(=O)O[C@H]1CC[C@H](O)[C@H](C)O` [6,7-DIHYDROPHOMOPSOLIDE B], the zone of inhibition at 100 µg/disc in experiment [1] stood at 10 mm.
On to `CC1(C)S[C@@H]2[C@H](NC(=O)Cc3ccccc3)C(=O)N2[C@H]1C(=O)O` [PENICILLIN G], for which the “inhibition zone (IZ)” value in experiment [4] is 22 mm.
As for `C/C=C(\C)C(=O)O[C@H]1C=CC(=O)O[C@H]1/C=C\C(=O)C(C)O` (some centres undefined) [PHOMOPSOLIDE A], the zone of inhibition at 25 µg/disc in experiment [2] was 22 mm.
On the same count and under the same terms, next, `C/C=C(\C)C(=O)O[C@H]1C=CC(=O)O[C@H]1/C=C/[C@H](O)[C@H](C)O` [PHOMOPSOLIDE B]: 20 mm.
As to `CN[C@@H]1[C@H](O[C@H]2[C@H](O[C@H]3[C@H](O)[C@@H](O)[C@H](N=C(N)N)[C@@H](O)[C@@H]3N=C(N)N)O[C@@H](C)[C@]2(O)C=O)O[C@@H](CO)[C@H](O)[C@H]1O` [STREPTOMYCIN], the zone of inhibition at 10 µg/disc in experiment [5] was 13 mm.
For `CN(C)[C@@H]1C(O)=C(C(N)=O)C(=O)[C@@]2(O)C(O)=C3C(=O)c4c(O)cccc4[C@@](C)(O)[C@H]3C[C@@H]12` [TETRACYCLINE], the zone of inhibition at 30 µg/disc in experiment [6] came to 38 mm.
